target: VMAT2 (human platelet homogenate) (Homo sapiens (Human), UniProt Q05940); experiment: Human VMAT2 Ki, slightly modified competition binding procedure (Table 11); details: 10 nM 3H-dihydrotetrabenazine;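 further: competition binding with 90 min incubation at 25 °C, after which filter-retained radioligand was measured by scintillation counting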
Sequence (Q05940 whole entry): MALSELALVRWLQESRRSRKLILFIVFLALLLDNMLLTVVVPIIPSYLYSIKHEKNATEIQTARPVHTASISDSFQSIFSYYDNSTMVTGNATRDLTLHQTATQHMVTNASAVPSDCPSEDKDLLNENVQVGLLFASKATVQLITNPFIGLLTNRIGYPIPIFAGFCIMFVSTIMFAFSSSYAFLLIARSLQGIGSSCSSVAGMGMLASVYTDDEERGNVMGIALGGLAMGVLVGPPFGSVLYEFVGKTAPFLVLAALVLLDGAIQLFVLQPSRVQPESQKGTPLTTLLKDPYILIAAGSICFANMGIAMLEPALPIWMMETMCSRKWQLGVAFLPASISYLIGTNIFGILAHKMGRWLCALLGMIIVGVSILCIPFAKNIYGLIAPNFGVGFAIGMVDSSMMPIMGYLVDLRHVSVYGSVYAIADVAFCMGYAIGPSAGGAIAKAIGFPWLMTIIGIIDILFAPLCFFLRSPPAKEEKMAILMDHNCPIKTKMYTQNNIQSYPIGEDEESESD
Description: Following incubation at 25° C. for 90 minutes, bound radioligand was collected by rapid filtration onto GF/B glass fiber filters using a Unifilter-96 Harvester (PerkinElmer). Filter plates were pre-treated with 0.1% polyethylenimine and allowed to dry overnight, and following harvesting the filter plates were washed with 800 d VMAT2 binding buffer. Bound radioligand was quantified by scintillation counting using a Topcount NXT (PerkinElmer).

Row | SMILES | Ki
1 | COc1cc2c(cc1OC)[C@H]1C[C@@H](COC(=O)C(C)(C)O)[C@H](CC(C)C)CN1CC2 [Compound 2-24, [(2R,3S,11bR)-9,10-dimethoxy-3-(2-methylpropyl)-1H,2H,3H,4H,6H,7H,11bH-pyrido[2,1-a]isoquinolin-2-yl]methyl 2-hydroxy-2-methylpropanoate] | 10 to 500 nM
2 | COc1cc2c(cc1OC)[C@H]1C[C@@H](COC(=O)C3CCOCC3)[C@H](CC(C)C)CN1CC2 [Compound 2-22, [(2R,3S,11bR)-9,10-dimethoxy-3-(2-methylpropyl)-1H,2H,3H,4H,6H,7H,11bH-pyrido[2,1-a]isoquinolin-2-yl]methyl oxane-4-carboxylate] | < 10 nM
3 | COc1cc2c(cc1OC)[C@H]1C[C@@H](COC(=O)CCN3CCOCC3)[C@H](CC(C)C)CN1CC2 [Compound 2-2, [(2R,3S,11bR)-9,10-dimethoxy-3-(2-methylpropyl)-1H,2H,3H,4H,6H,7H,11bH-pyrido[2,1-a]isoquinolin-2-yl]methyl 3-(morpholin-4-yl)propanoate] | < 10 nM
4 | COc1cc2c(cc1OC)C1CC(COC(=O)C3CC(C)(C)N([O])C3(C)C)C(CC(C)C)CN1CC2 [Compound 2-27, [3-({[(2R,3S,11bR)-9,10-dimethoxy-3-(2-methylpropyl)-1H,2H,3H,4H,6H,7H,11bH-pyrido[2,1-a]isoquinolin-2-yl]methoxy}carbonyl)-2,2,5,5-tetramethylpyrrolidin-1-yl]oxidanyl] | 10 to 500 nM
5 | COc1cc2c(cc1OC)[C@H]1C[C@@H](COC(=O)CC(N)=O)[C@H](CC(C)C)CN1CC2 [Compound 2-9, [(2R,3S,11bR)-9,10-dimethoxy-3-(2-methylpropyl)-1H,2H,3H,4H,6H,7H,11bH-pyrido[2,1-a]isoquinolin-2-yl]methyl 2-carbamoylacetate] | < 10 nM
6 | COc1cc2c(cc1OC)[C@H]1C[C@@H](COC(=O)CCn3ccc(C)n3)[C@H](CC(C)C)CN1CC2 [Compound 2-23, [(2R,3S,11bR)-9,10-dimethoxy-3-(2-methylpropyl)-1H,2H,3H,4H,6H,7H,11bH-pyrido[2,1-a]isoquinolin-2-yl]methyl 3-(3-methyl-1H-pyrazol-1-yl)propanoate] | < 10 nM
7 | COc1cc2c(cc1OC)[C@H]1C[C@@H](COC(=O)CC[N+](=O)[O-])[C@H](CC(C)C)CN1CC2 [Compound 2-14, [(2R,3S,11bR)-9,10-dimethoxy-3-(2-methylpropyl)-1H,2H,3H,4H,6H,7H,11bH-pyrido[2,1-a]isoquinolin-2-yl]methyl 3-nitropropanoate] | < 10 nM
8 | COc1cc2c(cc1OC)[C@H]1C[C@@H](COC(=O)CS(=O)(=O)O)[C@H](CC(C)C)CN1CC2 [Compound 2-35, 2-{[(2R,3S,11bR)-9,10-dimethoxy-3-(2-methylpropyl)-1H,2H,3H,4H,6H,7H,11bH-pyrido[2,1-a]isoquinolin-2-yl]methoxy}-2-oxoethane-1-sulfonic acid] | > 500 nM
9 | COc1cc2c(cc1OC)[C@H]1C[C@@H](COC(=O)[C@H]3CCN(Cc4ccccc4)C3)[C@H](CC(C)C)CN1CC2 [Compound 2-26, [(2R,3S,11bR)-9,10-dimethoxy-3-(2-methylpropyl)-1H,2H,3H,4H,6H,7H,11bH-pyrido[2,1-a]isoquinolin-2-yl]methyl (3S)-1-benzylpyrrolidine-3-carboxylate] | < 10 nM
10 | COc1cc2c(cc1OC)[C@H]1C[C@@H](COC(=O)C3CCCN(C)C3)[C@H](CC(C)C)CN1CC2 (stereo partly drawn) [Compound 2-12, [(2R,3S,11bR)-9,10-dimethoxy-3-(2-methylpropyl)-1H,2H,3H,4H,6H,7H,11bH-pyrido[2,1-a]isoquinolin-2-yl]methyl 1-methylpiperidine-3-carboxylate] | < 10 nM
11 | COc1cc2c(cc1OC)[C@H]1C[C@@H](COC(=O)CCN3CCCCC3)[C@H](CC(C)C)CN1CC2 [Compound 2-19, [(2R,3S,11bR)-9,10-dimethoxy-3-(2-methylpropyl)-1H,2H,3H,4H,6H,7H,11bH-pyrido[2,1-a]isoquinolin-2-yl]methyl 3-(piperidin-1-yl)propanoate] | < 10 nM
12 | COc1cc2c(cc1OC)[C@H]1C[C@@H](COC(=O)CCn3c(=O)oc4ccccc43)[C@H](CC(C)C)CN1CC2 [Compound 2-39, [(2R,3S,11bR)-9,10-dimethoxy-3-(2-methylpropyl)-1H,2H,3H,4H,6H,7H,11bH-pyrido[2,1-a]isoquinolin-2-yl]methyl 3-(2-oxo-2,3-dihydro-1,3-benzoxazol-3-yl)propanoate] | < 10 nM

Further lines, results first:

Row | Ki | SMILES
13 | 10 to 500 nM | COc1cc2c(cc1OC)[C@H]1C[C@@H](COC(=O)N3CCN(S(C)(=O)=O)CC3)[C@H](CC(C)C)CN1CC2 [Compound 5-15, [(2R,3S,11bR)-9,10-dimethoxy-3-(2-methylpropyl)-1H,2H,3H,4H,6H,7H,11bH-pyrido[2,1-a]isoquinolin-2-yl]methyl 4-methanesulfonylpiperazine-1-carboxylate]
14 | < 10 nM | COc1cc2c(cc1OC)[C@H]1C[C@@H](COC(=O)CC(N)C(C)C)[C@H](CC(C)C)CN1CC2 (stereo partly drawn) [Compound 4-17, [(2R,3S,11bR)-9,10-dimethoxy-3-(2-methylpropyl)-1H,2H,3H,4H,6H,7H,11bH-pyrido[2,1-a]isoquinolin-2-yl]methyl 3-amino-4-methylpentanoate]
15 | < 10 nM | COc1cc2c(cc1OC)[C@H]1C[C@@H](COC(=O)[C@@H](N)Cc3ccccc3)[C@H](CC(C)C)CN1CC2 [Compound 4-2, [(2R,3S,11bR)-9,10-dimethoxy-3-(2-methylpropyl)-1H,2H,3H,4H,6H,7H,11bH-pyrido[2,1-a]isoquinolin-2-yl]methyl (2S)-2-amino-3-phenylpropanoate]
16 | > 500 nM | COc1cc2c(cc1OC)[C@H]1C[C@@H](COC(=O)N[C@H](C)C(=O)O)[C@H](CC(C)C)CN1CC2 [Compound 5-45, (2R)-2-[({[(2R,3S,11bR)-9,10-dimethoxy-3-(2-methylpropyl)-1H,2H,3H,4H,6H,7H,11bH-pyrido[2,1-a]isoquinolin-2-yl]methoxy}carbonyl)amino]propanoic acid]
17 | < 10 nM | COc1cc2c(cc1OC)[C@H]1C[C@@H](COC(=O)C[C@H]3CCCN3)[C@H](CC(C)C)CN1CC2 [Compound 4-23, [(2R,3S,11bR)-9,10-dimethoxy-3-(2-methylpropyl)-1H,2H,3H,4H,6H,7H,11bH-pyrido[2,1-a]isoquinolin-2-yl]methyl 2-[(2R)-pyrrolidin-2-yl]acetate]
18 | 10 to 500 nM | COc1cc2c(cc1OC)[C@H]1C[C@@H](COCC3CCNCC3)[C@H](CC(C)C)CN1CC2 [Compound 10-5, 4-({[(2R,3S,11bR)-9,10-dimethoxy-3-(2-methylpropyl)-1H,2H,3H,4H,6H,7H,11bH-pyrido[2,1-a]isoquinolin-2-yl]methoxy}methyl)piperidine]
19 | < 10 nM | COc1cc2c(cc1OC)[C@H]1C[C@@H](COC(=O)N3C[C@@H]4C[C@H]3CO4)[C@H](CC(C)C)CN1CC2 [Compound 5-24, [(2R,3S,11bR)-9,10-dimethoxy-3-(2-methylpropyl)-1H,2H,3H,4H,6H,7H,11bH-pyrido[2,1-a]isoquinolin-2-yl]methyl(1S,4S)-2-oxa-5-azabicyclo[2.2.1]heptane-5-carboxylate]
20 | 10 to 500 nM | COc1cc2c(cc1OC)[C@H]1C[C@@H](COC(=O)OC(C)C)[C@H](CC(C)C)CN1CC2 [Compound 8-1, [(2R,3S,11bR)-9,10-dimethoxy-3-(2-methylpropyl)-1H,2H,3H,4H,6H,7H,11bH-pyrido[2,1-a]isoquinolin-2-yl]methyl propan-2-yl carbonate]
21 | < 10 nM | COc1cc2c(cc1OC)[C@H]1C[C@@H](COC(=O)C3CNCCO3)[C@H](CC(C)C)CN1CC2 (stereo partly drawn) [Compound 4-27, [(2R,3S,11bR)-9,10-dimethoxy-3-(2-methylpropyl)-1H,2H,3H,4H,6H,7H,11bH-pyrido[2,1-a]isoquinolin-2-yl]methyl morpholine-2-carboxylate]
22 | < 10 nM | COc1cc2c(cc1OC)[C@H]1C[C@@H](COCCC3CCNCC3)[C@H](CC(C)C)CN1CC2 [Compound 10-1, 4-(2-{[(2R,3S,11bR)-9,10-dimethoxy-3-(2-methylpropyl)-1H,2H,3H,4H,6H,7H,11bH-pyrido[2,1-a]isoquinolin-2-yl]methoxy}ethyl)piperidine]
23 | 10 to 500 nM | COc1cc2c(cc1OC)[C@H]1C[C@@H](COC(=O)[C@@H](N)c3ccccc3)[C@H](CC(C)C)CN1CC2 [Compound 4-33, [(2R,3S,11bR)-9,10-dimethoxy-3-(2-methylpropyl)-1H,2H,3H,4H,6H,7H,11bH-pyrido[2,1-a]isoquinolin-2-yl]methyl (2S)-2-amino-2-phenylacetate]
24 | 10 to 500 nM | COc1cc2c(cc1OC)[C@H]1C[C@@H](COC(=O)c3ccc(CN)cc3)[C@H](CC(C)C)CN1CC2 [Compound 4-18, [(2R,3S,11bR)-9,10-dimethoxy-3-(2-methylpropyl)-1H,2H,3H,4H,6H,7H,11bH-pyrido[2,1-a]isoquinolin-2-yl]methyl 4-(aminomethyl)benzoate]
25 | 10 to 500 nM | COc1cc2c(cc1OC)[C@H]1C[C@@H](COC(=O)[C@H](N)c3ccc(C(F)(F)F)cc3)[C@H](CC(C)C)CN1CC2 [Compound 4-30, [(2R,3S,11bR)-9,10-dimethoxy-3-(2-methylpropyl)-1H,2H,3H,4H,6H,7H,11bH-pyrido[2,1-a]isoquinolin-2-yl]methyl (2R)-2-amino-2-[4-(trifluoromethyl)phenyl]acetate]
26 | 10 to 500 nM | COc1cc2c(cc1OC)[C@H]1C[C@@H](COC(=O)C3NCc4ccccc43)[C@H](CC(C)C)CN1CC2 (stereo partly drawn) [Compound 4-6, [(2R,3S,11bR)-9,10-dimethoxy-3-(2-methylpropyl)-1H,2H,3H,4H,6H,7H,11bH-pyrido[2,1-a]isoquinolin-2-yl]methyl 2,3-dihydro-1H-isoindole-1-carboxylate]
27 | > 500 nM | COc1cc2c(cc1OC)[C@H]1C[C@@H](COC(=O)N3CCN(C)CC3)[C@H](CC(C)C)CN1CC2 [Compound 5-7, [(2R,3S,11bR)-9,10-dimethoxy-3-(2-methylpropyl)-1H,2H,3H,4H,6H,7H,11bH-pyrido[2,1-a]isoquinolin-2-yl]methyl 4-methylpiperazine-1-carboxylate]
28 | < 10 nM | COc1cc2c(cc1OC)[C@H]1CC(COC(=O)[C@@H](N)C(C)C)[C@H](CC(C)C)CN1CC2 (stereo partly drawn) [Compound 4-12, [(3S,11bR)-9,10-dimethoxy-3-(2-methylpropyl)-1H,2H,3H,4H,6H,7H,11bH-pyrido[2,1-a]isoquinolin-2-yl]methyl (2S)-2-amino-3-methylbutanoate]
